Series [1] deals with CREB phosphorylation. As to the kind of experiment: CREB phosphorylation immunoblot (LI-COR quantification). In kind it is cell-based. To be noted: AML-3 cell line, 2 hours post-treatment. As to the method: (§1) As cilostazol inhibits PDE3 which activates. PKA, studies were carried out using various PKA activators, including forskolin, a cell permeable analog of cAMP, db-cAMP, and a PDE3 inhibitor.
Background: Immunoblotting shows a protein as a band on a membrane.

In series [2] the test system is AML-3 cell line. Briefly: potentiation of statin cytotoxic/apoptotic effects by agents that mimic DP activities. To be noted: for potentiation of the cytotoxic effects of statins / statin cancer cell death: in combination with statin (forskolin with fluvastatin). The format is cell-based.
Protocol: The mechanism of action was investigated. First, to tease apart which of DP's many activities may be functionally critical, the synergistic potential of a panel of agents that mimics DP in one or more of its activities was tested (see Table 1).
As cilostazol inhibits PDE3 which activates. PKA, studies were carried out using various PKA activators, including forskolin, a cell permeable analog of cAMP, db-cAMP, and a PDE3 inhibitor. […] Inhibition of PDEs 6, 9 and 11 by zaprinast is expected to raise cGMP but not cAMP levels.
Series [3] concerns AML cell lines and the KMS11 mM cell line. As to the kind of experiment: combination tests (FIG. 12). The format is cell-based. The following applies: in combination with fluvastatin. From the text: FIG. 12. Combination tests.
The subject of series [4] is AML-2. Briefly: potentiation of statin cytotoxic effects by agents that mimic DP activities. In kind it is cell-based. To be noted: in combination with statin. As to the method:
as §1

Series [5] relates to KMS11. The series is described as above. The format is cell-based. To be noted: in combination with statin. As to the method:
as §1

Series [6] relates to HMGCR mRNA in LP1 mM cells. As to the kind of experiment: HMGCR mRNA levels by real-time PCR (SYBR Green). In kind it is cell-based. To be noted: combination of statins and dipyridamole, 16 hours post compound treatment. Background: In qPCR the cycle at which signal appears reflects the starting amount.
Protocol: (§2) RNA from primary AML and LP1 cells was harvested 24 and 16 hours post compound treatment respectively using TRIZOL reagent. HMGCR mRNA levels were assessed using real-time PCR (SYBR Green). […] For example, Fluva 2 indicates a fluvastatin concentration of 2 μM.
In series [7] the test system is A549. Briefly: potentiation and synergy with statin in lung cancer cell line. The format is cell-based. The following applies: with atorvastatin, 72 hours.
Protocol: (§3) Atorvastatin was used in A549's and fluvastatin the breast cancer cell lines to asses potentiation and synergy.
(§4) Experiments in breast cancer cell lines (e.g. MCF-7) as well as the lung cancer cell lines (e.g. A549) were carried out similarly as described above.
(§5) Atorvastatin was used in A549's and fluvastatin the breast cancer cell lines to assess potentiation and synergy.
Series [8] deals with primary AML patient samples. As to the kind of experiment: apoptosis by Annexin V and propidium iodide dual staining. In kind it is cell-based. The following applies: 48 hrs.
Description: AV−/PI−=live cells, AV+/PI−=early apoptosis, AV+/PI+=late apoptosis, AV−/PI+=necrosis.
Series [9] has as its system KMS11 cell line. As to the kind of experiment: apoptosis by fixed PI, TUNEL and PARP cleavage. The following applies: combination of dipyridamole and atorvastatin, 48 hrs; MVA dependant.
Series [10] has as its system AML-3 cell line. Briefly: apoptosis by fixed PI, TUNEL and PARP cleavage. To be noted: combination of dipyridamole and atorvastatin, 48 hrs; MVA dependant.
Series [11] has as its system breast cancer cell lines (e.g. MCF-7). Briefly: potentiation and synergy with statin in breast cancer cell lines. In kind it is cell-based. The following applies: with fluvastatin, 72 hours.
Protocol: as §3, §4, §5
For series [12], the system named is HMGCR mRNA in primary AML patient samples. Briefly: HMGCR mRNA levels by real-time PCR (SYBR Green). The format is cell-based. The following applies: combination of statins and dipyridamole, 24 hours post compound treatment.
Protocol: as §2
For series [13], the system named is KMS11 Multiple Myeloma (MM) cells. As to the kind of experiment: chemical screen for compounds potentiating the anti-proliferative/cytotoxic effect of atorvastatin (MTS). The format is cell-based. The following applies: sublethal doses in combination with atorvastatin (IC20), 72 hours.
Protocol: A hundred compounds from the chemical library (see text) were assayed at varying concentrations (5-50 μM).
One hundred compounds were evaluated for their ability to potentiate the anti-proliferative activity of atorvastatin on statin-sensitive KMS11 mM cells. Briefly, cells were exposed to sublethal doses of atorvastatin (IC20) alone and in combination with sublethal doses of the compounds.
For series [14], the system named is KMS11-luc (KMS11 cells stably expressing luciferase).
Description: Tumours were imaged in mice on designated days by whole-body imaging using the IVIS imaging system illustrated by a representative image (C). Briefly, mice were i.p. injected with luciferein followed by anesthetization with isoflurane. Signal intensity was quantified using Living Image versio 2.50.2 (Xenogen) by summing detected photon counts from dorsal and ventral images.
The mark [15] stands for this setting: p.o. three times a week for 37 days initiated 2 days post KMS11-luc injection, alone.

For the molecule `CCCC(=O)Nc1ncnc2c1ncn2[C@@H]1O[C@@H]2COP(=O)(O)O[C@H]2[C@H]1OC(=O)CCC` [db-cAMP, dibutyryl-cAMP], the CREB phosphorylation entry in series [1] was “increase”. Besides, the “apoptotic effects in combination with atorvastatin” value in series [2] (0.25 mM in combination with atorvastatin, 48 hours post treatment) is “recapitulated the DP-atorvastatin apoptotic effects”.

`O=C1CCc2cc(OCCCCc3nnnn3C3CCCCC3)ccc2N1` [Cilostazol, cilostazol]: the “level of potentiation compared with dipyridamole+fluvastatin” value in [3] is “similar”. Also, in [3], the “potentiation of fluvastatin cell death” value is listed as “potentiated”. For the same molecule, the “potentiation of the cytotoxic effects of statins” value in series [4] and in series [5] was “potentiated” throughout. Moreover, the “potentiation of the cytotoxic effects of statins / statin cancer cell death” value in [2] is reported as “potentiated”.

As for `OCCN(CCO)c1nc(N2CCCCC2)c2nc(N(CCO)CCO)nc(N3CCCCC3)c2n1` [dipyridamole], the “upregulation of HMGCR mRNA” value in [6] and in series [12] was “prevents the upregulation” throughout. In addition, the “potentiation of the anti-cancer effects of statins” value in [7] and in series [11] was “potentiated” throughout. In addition, the induction of apoptosis entry in series [8] (in combination with atorvastatin), in [8] (in combination with fluvastatin), in [9] and in series [10] was “induced apoptosis” throughout. Further, the CREB phosphorylation result in series [1] is “increase”. Further, the “potentiation of the anti-proliferative activity of atorvastatin” value in series [13] is “remarkable potentiation”.

Consider `C=C[C@@]1(C)CC(=O)[C@]2(O)[C@@]3(C)[C@@H](O)CCC(C)(C)[C@@H]3[C@H](O)[C@H](OC(C)=O)[C@@]2(C)O1` [forskolin], for which the “potentiation of the cytotoxic effects of statins / statin cancer cell death” value in series [2] is on record as “potentiated”.

Consider `CC(C)c1c(C(=O)Nc2ccccc2)c(-c2ccccc2)c(-c2ccc(F)cc2)n1CC[C@@H](O)C[C@@H](O)CC(=O)O` [atorvastatin], for which the “effect on tumour growth, lower doses alone” value in series [14] (lower doses, p.o. 3 times a week) was “no significant effect”. Moreover, in [14] (setting [15]), the survival result was “prolonged” and the tumor burden result is “significantly reduced”.

The values above are taken from patent US20130131088A1 (UNIVERSITY HEALTH NETWORK, priority 2010, published 2013).
